Experimental findings from PubChem BioAssay (NCI) are described below.

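Five concentrations, 48 hours, 96-well plates. TGI: concentration producing complete growth inhibition.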

Test systems include NCI-H23 lung; SK-OV-3 ovarian; U251 CNS; UACC-62 melanoma; OVCAR-5 ovarian; NCI-H226 lung; SW-620 colon; ACHN renal; SR leukemia; RXF 393 renal; MALME-3M melanoma; SNB-75 CNS; HOP-92 NSCLC; SNB-19 CNS; KM12 colon; RPMI-8226 leukemia; MOLT-4 leukemia; MDA-MB-435; BT-549 breast; MCF7 breast.
Experiment in all cases: NCI-60 cell line screen, 48 h

Consider `CCOC(=O)Nc1cc2nnc(-c3ccccc3)nc2c(N)n1`, for which the TGI in the experiment with NCI-H23 lung is 64.2 µM; in the experiment on SK-OV-3 ovarian it was 39.9 µM; in the experiment on U251 CNS it was more than 100 µM; in the experiment on UACC-62 melanoma it was more than 100 µM; in the experiment on OVCAR-5 ovarian, 48.5 µM; in the experiment with NCI-H226 lung, 71.8 µM. The TGI in the experiment with SW-620 colon was 42.2 µM; in the experiment on ACHN renal, more than 100 µM; in the experiment with SR leukemia it was 72.2 µM; in the experiment with RXF 393 renal, 53.5 µM; in the experiment on MALME-3M melanoma, 87.7 µM; with SNB-75 CNS, 61.6 µM. Moreover, the TGI in the experiment on HOP-92 NSCLC is 85.2 µM; in the experiment on SNB-19 CNS it was more than 100 µM; in the experiment on KM12 colon it was more than 100 µM; with RPMI-8226 leukemia, 74.3 µM.

With `CCC(C)n1c(C)nc2c1C(=O)c1ccccc1C2=O` (stereo not given), the TGI with NCI-H23 lung, in the experiment with SK-OV-3 ovarian, with U251 CNS, in the experiment on UACC-62 melanoma, in the experiment on NCI-H226 lung and with SW-620 colon was more than 100 µM in each case. In addition, the TGI in the experiment on ACHN renal was more than 100 µM; in the experiment with SR leukemia, more than 100 µM; with RXF 393 renal it was more than 100 µM; in the experiment on MALME-3M melanoma it was 77.9 µM; with MOLT-4 leukemia, more than 100 µM; with SNB-75 CNS it was more than 100 µM. Moreover, the TGI in the experiment on HOP-92 NSCLC, in the experiment on SNB-19 CNS and in the experiment on KM12 colon was more than 100 µM throughout.

As for `O=C1/C(=C/c2ccccc2)CCCC1CN1CCCCC1` (stereo not given), the TGI was determined as 16.7 µM in the experiment on NCI-H23 lung; 4.26 µM in the experiment with MDA-MB-435; 31 µM in the experiment on SK-OV-3 ovarian; 27 µM in the experiment on U251 CNS; 19.7 µM in the experiment on UACC-62 melanoma; 33.8 µM in the experiment on OVCAR-5 ovarian. Also, the TGI was 9.87 µM in the experiment with NCI-H226 lung; 2.64 µM with SW-620 colon; 8.91 µM in the experiment on BT-549 breast; 11.8 µM in the experiment on ACHN renal; 3.76 µM in the experiment with RXF 393 renal; 3.97 µM in the experiment with MALME-3M melanoma. The TGI with MOLT-4 leukemia was more than 100 µM; in the experiment with SNB-75 CNS, 20.5 µM; in the experiment with HOP-92 NSCLC, 6.05 µM; in the experiment with MCF7 breast, 1.69 µM; with SNB-19 CNS, 29.1 µM; in the experiment on KM12 colon it was 2.78 µM. Further, the TGI in the experiment with RPMI-8226 leukemia is more than 100 µM.

In the case of `Cc1cc(N(CCC#N)CCC#N)ccc1/C=C1N=C(/C=C\c2ccccc2)OC\1=O`, the TGI in the experiment on NCI-H23 lung, with SK-OV-3 ovarian, in the experiment with U251 CNS, in the experiment with UACC-62 melanoma, with OVCAR-5 ovarian and in the experiment on NCI-H226 lung was more than 100 µM in each case. Also, the TGI with SW-620 colon, with ACHN renal, in the experiment on SR leukemia, in the experiment with RXF 393 renal, in the experiment on MALME-3M melanoma and with MOLT-4 leukemia was more than 100 µM each time. Also, the TGI in the experiment on SNB-75 CNS, in the experiment with HOP-92 NSCLC, with SNB-19 CNS, with KM12 colon and in the experiment on RPMI-8226 leukemia was more than 100 µM in each case.

Regarding `CCNC(C)Cc1ccccc1` (stereo not given), the TGI with NCI-H23 lung, with SK-OV-3 ovarian, in the experiment on U251 CNS, with UACC-62 melanoma, in the experiment on OVCAR-5 ovarian and in the experiment on NCI-H226 lung was more than 100 µM each time. Also, the TGI in the experiment with SW-620 colon, in the experiment with ACHN renal, with SR leukemia, in the experiment with RXF 393 renal, in the experiment on MALME-3M melanoma and with SNB-75 CNS was more than 100 µM throughout. The TGI in the experiment on HOP-92 NSCLC, with SNB-19 CNS, with KM12 colon and with RPMI-8226 leukemia was more than 100 µM each time.

For `O=C(Nc1c(O)[nH]c(=S)[nH]c1=O)c1ccccc1F`, the TGI with NCI-H23 lung, in the experiment with SK-OV-3 ovarian, in the experiment on U251 CNS, in the experiment on UACC-62 melanoma, with OVCAR-5 ovarian and in the experiment on NCI-H226 lung was more than 100 µM in each case. In addition, the TGI in the experiment with SW-620 colon, in the experiment on ACHN renal, in the experiment on SR leukemia, in the experiment on MALME-3M melanoma, in the experiment on MOLT-4 leukemia and in the experiment with SNB-75 CNS was more than 100 µM each time. The TGI in the experiment with HOP-92 NSCLC, in the experiment with SNB-19 CNS, in the experiment on KM12 colon and with RPMI-8226 leukemia was more than 100 µM throughout.

As to `ON/N=C/c1cc2c(cc1Br)OCO2`, the TGI in the experiment with NCI-H23 lung, in the experiment on SK-OV-3 ovarian, with U251 CNS, with UACC-62 melanoma, in the experiment with OVCAR-5 ovarian and in the experiment with NCI-H226 lung was more than 386 µM in each case. Besides, the TGI in the experiment on SW-620 colon, with ACHN renal, in the experiment on SR leukemia, with RXF 393 renal, in the experiment with MALME-3M melanoma and in the experiment on MOLT-4 leukemia was more than 386 µM in each case. The TGI with HOP-92 NSCLC, with SNB-19 CNS, in the experiment with KM12 colon and with RPMI-8226 leukemia was more than 386 µM throughout.

In the case of `CC(=O)OC1=c2ccccc2=C(O)C2C1C=NN2C(C)=O` (stereo not given), the TGI with NCI-H23 lung, in the experiment with MDA-MB-435, in the experiment with SK-OV-3 ovarian, in the experiment on U251 CNS, with UACC-62 melanoma and in the experiment on OVCAR-5 ovarian was more than 100 µM throughout. For the same molecule, the TGI in the experiment on NCI-H226 lung, with SW-620 colon, in the experiment with BT-549 breast, in the experiment with ACHN renal, in the experiment on RXF 393 renal and in the experiment on MALME-3M melanoma was more than 100 µM each time. The TGI in the experiment on MOLT-4 leukemia, with SNB-75 CNS, in the experiment with HOP-92 NSCLC, in the experiment on MCF7 breast, with SNB-19 CNS and in the experiment with KM12 colon was more than 100 µM in each case. This molecule displayed a TGI with RPMI-8226 leukemia of more than 100 µM.

For `CC1(C)CC(=O)C(CCC(=O)/C=C/c2ccccc2)C(=O)C1`, the TGI with NCI-H23 lung, in the experiment with MDA-MB-435, in the experiment with SK-OV-3 ovarian, in the experiment with U251 CNS, with UACC-62 melanoma and in the experiment on OVCAR-5 ovarian was more than 100 µM each time. Besides, the TGI in the experiment on NCI-H226 lung, with SW-620 colon, with BT-549 breast, in the experiment on ACHN renal, in the experiment with RXF 393 renal and in the experiment with MALME-3M melanoma was more than 100 µM each time. Moreover, the TGI in the experiment with MOLT-4 leukemia, with SNB-75 CNS, in the experiment with HOP-92 NSCLC, in the experiment on MCF7 breast, in the experiment with SNB-19 CNS and in the experiment on KM12 colon was more than 100 µM throughout. Also, the TGI in the experiment with RPMI-8226 leukemia was more than 100 µM.

Take `C/C(CN1C(=O)c2ccccc2C1=O)=N\NS(=O)(=O)c1ccc(C)cc1`: the TGI in the experiment with NCI-H23 lung, with SK-OV-3 ovarian, in the experiment on U251 CNS, in the experiment on UACC-62 melanoma, with OVCAR-5 ovarian and with NCI-H226 lung was more than 100 µM throughout. In addition, the TGI in the experiment on SW-620 colon, with ACHN renal, in the experiment with SR leukemia, with MALME-3M melanoma, in the experiment with MOLT-4 leukemia and in the experiment with SNB-75 CNS was more than 100 µM in each case. The TGI with SNB-19 CNS, in the experiment on KM12 colon and with RPMI-8226 leukemia was more than 100 µM throughout.

Regarding `O=C(/C=C/c1ccc(OCCCOc2ccc(/C=C/C(=O)c3ccccc3)cc2)cc1)c1ccccc1`, the TGI in the experiment with NCI-H23 lung, in the experiment on UACC-62 melanoma, in the experiment on NCI-H226 lung, with SW-620 colon, with ACHN renal and in the experiment on SR leukemia was more than 100 µM each time. For the same molecule, the TGI in the experiment on RXF 393 renal, in the experiment with MALME-3M melanoma, with MOLT-4 leukemia, with SNB-75 CNS, in the experiment on SNB-19 CNS and with RPMI-8226 leukemia was more than 100 µM in each case.

For the molecule `Cc1ccc(S(=O)(=O)c2c(N)c3nc4ccccc4n3c3nc4ccccc4nc23)cc1`, the TGI with NCI-H23 lung, in the experiment on SK-OV-3 ovarian, in the experiment on U251 CNS, in the experiment with UACC-62 melanoma, with OVCAR-5 ovarian and in the experiment with NCI-H226 lung was more than 100 µM throughout. For the same molecule, the TGI in the experiment on SW-620 colon, in the experiment with ACHN renal, in the experiment with SR leukemia, with MALME-3M melanoma, in the experiment with MOLT-4 leukemia and in the experiment with SNB-75 CNS was more than 100 µM in each case. In addition, the TGI with SNB-19 CNS, in the experiment on KM12 colon and with RPMI-8226 leukemia was more than 100 µM throughout.

As for `CC(=O)OC12/C(=N/O)CCCCCC1c1ccccc12` (stereo not given), the TGI in the experiment on NCI-H23 lung, with SK-OV-3 ovarian, with U251 CNS, with UACC-62 melanoma, in the experiment on NCI-H226 lung and in the experiment on SW-620 colon was more than 100 µM each time. For the same molecule, the TGI in the experiment on ACHN renal, in the experiment with SR leukemia, in the experiment with RXF 393 renal, with MALME-3M melanoma, with MOLT-4 leukemia and in the experiment with SNB-75 CNS was more than 100 µM in each case. The TGI in the experiment with SNB-19 CNS, in the experiment on KM12 colon and in the experiment with RPMI-8226 leukemia was more than 100 µM each time.
